From PMC10313921, “A living ex vivo platform for functional, personalized brain cancer diagnosis” (Cell Reports Medicine, 2023)

How the values were obtained:
Format in all cases: cell-based, human
[1] = tested on: MB231Br (breast cancer metastasis to brain); assay: Drug screening of MB231Br tumor foci on OBSCs; details: MB231BR on OBSCs
[2] = tested on: LN229 (established GBM line); assay: Drug screening of LN229 tumor foci on OBSCs
Description: (§1) Tumor cells (0.17 μL, 25,000 cells) were seeded onto OBSCs 2h after slicing, with one tumor seeded in the center of each hemisphere for a total of two tumor foci per OBSC. BSM was changed 24h after slicing. Fluorescence images were taken 0 h, 24 h, and 96 h post-seeding for normalization of tumor size. Bioluminescence readouts were also taken at 0 h, 24 h, and 96 h post seeding for assessment of cell viability. Luciferin was added underneath the culture insert and allowed to incubate for 10 min before bioluminescence measurement on an AMI optical imaging system.
(§2) Tumor cells were seeded onto OBSCs 2h after slicing as described above. One day after tumor seeding, six concentrations of each drug were diluted in the media underneath each culture insert, or XRad was applied using an X-Rad 320 Precision X-ray machine (n = 4 tumor foci per concentration; n ≥ 24 tumor foci per drug per cell line). Three days after treatment, the bioluminescence of live tumor cells was measured using an AMI optical imager (Spectral Instruments) and dose-response curves were generated. Tumor survival was normalized to day one tumor fluorescence and compared to an untreated control group.
(§3) Several weighted parameters were factored into an overall drug sensitivity score.
(§4) For DSS parameters 1–6, therapeutic windows were calculated by comparing OBSC toxicity and tumor response at the doses where tumor kill passed through the DSS parameter (Table S1 and S3). For DSS parameter 7, the therapeutic window was calculated by comparing the slopes through the tumor EC50 and the OBSC tox EC50. For DSS parameter 8, the therapeutic window was calculated by comparing the areas under tumor kill and OBSC tox curves. Normalized therapeutic window ratios for DSS parameters 1–8 within each drug-tumor-OBSC interaction were calculated in the following manner: within each window, values ranged from +1 to −1, where values approaching +1 signify increasing tumor kill relative to normal tissue toxicity, and values approaching −1 indicate agents where tumors remained highly viable while toxicity to the normal OBSC tissue was elevated. DSS parameters 9–11 were determined based on the behavior of the tumor in response to the drug, as defined above.
(§5) All individually weighed parameters were added together to generate the DSS. Overall DSS from 0 to 100 signify increasing efficacy in tumor kill relative to OBSC toxicity, while scores from 0 to −100 describe scenarios in which tumors thrive more effectively than OBSCs for a given treatment. Dose-response values were calculated via linear interpolation of raw data, not from best-fit curve equations.

[3] = tested on: U373WT (wild-type established GBM line); assay: Drug screening of U373WT tumor foci on OBSCs
Description: as §1, §2, §3, §4, §5

[4] = tested on: U373KO (RAD18 knockout of U373WT via CRISPR); assay: Drug screening of U373KO tumor foci on OBSCs; details: U373 KO on OBSCs
Description: as §1, §2, §3, §4, §5

[5] = tested on: GBM8 (high-passage patient-derived GBM line); assay: Drug screening of GBM8 tumor foci on OBSCs; details: GBM8 on OBSCs
Description: as §1, §2, §3, §4, §5

[6] = tested on: MS21 (low-passage patient-derived GBM line); assay: Drug screening of MS21 tumor foci on OBSCs; details: MS21 on OBSCs
Description: as §1, §2, §3, §4, §5

[7] = tested on: PDIPG (low-passage pediatric patient-derived line); assay: Drug screening of PDIPG tumor foci on OBSCs; details: PDIPG on OBSCs
Description: as §1, §2, §3, §4, §5

[8] = tested on: 7 cell lines (MB231Br, LN229, U373WT, U373KO, GBM8, MS21, PDIPG); assay: Drug screening on OBSCs, summary over the panel of seven tumor lines; details: number of lines responding
Description: as §1, §2, §3, §4, §5

[9] = area under the dose-response curve, trapezoidal rule
[10] = dose required to kill 10% of the tumor
[11] = dose required to kill 25% of the tumor
[12] = dose required to kill 50% of the tumor
[13] = dose required to kill 75% of the tumor
[14] = dose required to kill 90% of the tumor
[15] = dose required to kill 50% of the tumor, read-out: EC50
[16] = dose required to kill 90% of the tumor, read-out: EC90

Question: Which results are given for N.N.[Cl][Pt][Cl] [Cisplatin]?
Answer: Killing at highest dose [1]: 1.00E+00 fraction of tumor population killed; AUC [1, 9]: 6.20E+01; EC10 [1, 10]: 74.1 µM; EC25 [1, 11]: 87.1 µM; EC50 [1, 12]: 125 µM; EC75 [1, 13]: 188 µM; EC90 [1, 14]: 225 µM; Slope ([1]; slope through the EC50): -4.00E-03; Killing at highest dose [2]: 1.00E+00 fraction of tumor population killed; AUC [2, 9]: 7.69E+01; EC10 [2, 10]: 74.6 µM; EC25 [2, 11]: 81.3 µM; EC50 [2, 12]: 92.4 µM; EC75 [2, 13]: 136 µM; EC90 [2, 14]: 205 µM; Slope ([2]; slope through the EC50): -2.20E-03; Killing at highest dose ([3]; U373 WT on OBSCs): 1.00E+00 fraction of tumor population killed; AUC ([3]; U373 WT on OBSCs, area under the dose-response curve, trapezoidal rule): 1.33E+01; EC10 ([3]; U373 WT on OBSCs, dose required to kill 10% of the tumor): 20.3 µM; EC25 ([3]; U373 WT on OBSCs, dose required to kill 25% of the tumor): 28.4 µM; EC50 ([3]; U373 WT on OBSCs, dose required to kill 50% of the tumor): 41.9 µM; EC75 ([3]; U373 WT on OBSCs, dose required to kill 75% of the tumor): 65.2 µM; EC90 ([3]; U373 WT on OBSCs, dose required to kill 90% of the tumor): 87.9 µM; Slope ([3]; U373 WT on OBSCs, slope through the EC50): -1.85E-02; DSS (drug sensitivity score) ([3]; U373 WT, scale -100 to +100, tumor kill relative to OBSC toxicity): 62; Killing at highest dose [4]: 1.00E+00 fraction of tumor population killed; AUC [4, 9]: 1.56E+01; EC10 [4, 10]: 33.2 µM; EC25 [4, 11]: 36.5 µM; EC50 [4, 12]: 42 µM; EC75 [4, 13]: 47.6 µM; EC90 [4, 14]: 114 µM; Slope ([4]; slope through the EC50): -4.53E-02; Killing at highest dose [5]: 1.00E+00 fraction of tumor population killed; AUC [5, 9]: 1.76E-01; EC10 [5, 10]: 0.0906 µM; EC25 [5, 11]: 0.226 µM; EC50 [5, 15]: 0.453 µM; EC75 [5, 13]: 2.74 µM; EC90 [5, 16]: 4.2 µM; Slope ([5]; slope through the EC50): -1.10E+00; Killing at highest dose [6]: 9.99E-01 fraction of tumor population killed; AUC [6, 9]: 4.20E+00; EC10 [6, 10]: 4.55 µM; EC25 [6, 11]: 11.6 µM; EC50 [6, 15]: 24.7 µM; EC75 [6, 13]: 37.9 µM; EC90 [6, 16]: 45.7 µM; Slope ([6]; slope through the EC50): -1.90E-02; Killing at highest dose [7]: 1.00E+00 fraction of tumor population killed; AUC [7, 9]: 4.87E+00; EC10 [7, 10]: 3.17 µM; EC25 [7, 11]: 7.94 µM; EC50 [7, 15]: 16.8 µM; EC75 [7, 13]: 27.3 µM; EC90 [7, 16]: 41.5 µM; Slope ([7]; slope through the EC50): -2.73E-02; response / killing over the 7 cell lines [8]: robust response
